In patent US8633177B2, “Nitroxyl (HNO) releasing compounds and uses thereof in treating diseases” (The United States of America, as represented by the …, priority 2010, dated 2014):
pIC50: −log10 of the molar value.

How the values were obtained:
stomach ulcers = test: Ulcerogenicity (ulcer index) after oral administration; format: in vivo, rats; details: for Ulcer Index: 6 h after oral administration, equivalent to 250 mg/kg aspirin; for UI (ulcer index): as given in the text
Experimental: Ulcerogenicity was evaluated 6 h after oral administration of 250 mg/kg of aspirin (250 mg/kg) and an equivalent amount of the corresponding test compound. The compounds were suspended in 1.7 mL of a 1% methylcellulose solution and administered. The control rats received oral administration of a vehicle (1.7 mL of 1.0% methylcellulose solution). The rats were euthanized in a CO2 chamber and their stomachs and placed on ice and then the ulcers were studied using magnifying glass.

[1] = NO quantified by chemiluminescence during hydrolysis; format: physicochemical; details: 1 mM ferricyanide solution
Experimental: In addition to HNO measurements as described above by reductive nitrosylation of metmyoglobin, NO was quantified by chemiluminescence assay, N2O by gas chromatography, and nitrite ion by the Griess assay.
Detection of HNO was also carried out using the chemiluminescence method in, 1 mM ferricyanide solution.

A549 cells = test: MTT proliferation assay, A549 cells; format: cell-based; details: 48 h
Experimental: The effect of compounds 4 and 8 was studied on proliferation of A549 cells by 3-(4,5-Dimethylthiazol-2-yl)-2,5-diphenyltetrazolium bromide (MTT) assay. Cells were plated at a concentration of 10,000 cells per well in a 96 well plate and grown overnight. Then the cells were treated with different concentration of the compounds and controls for 48 h. After 48 h, a solution of 2 mg/ml MTT was added to each well and incubated for 1 hr. The media was then removed from each well and 100 μL DMSO was added to each well and the absorbance was recorded at 550 nm.

MDA-MB-231 cell line = test: Comet assay for DNA damage, MDA-MB-231; format: cell-based, human; details: 50 μM IPA/NO-aspirin, 75 μM DEA/NO-aspirin
Experimental: The pathological aspect of high ROS is the ability to cause oxidative damage to DNA. To further investigate this possibility, the effect of NONO-aspirin was studied on DNA damage using a comet assay in the MDA-MB-231 cell line.
Cells were plated at a concentration of 50,000 cells per well in a 12 well plate and grown overnight. Cells were treated with 50 μM IPA/NO-aspirin and 75 μM DEA/NO-aspirin for 12 h and the assay was conducted using a comet assay kit (Cat No. 4250-050-K, Trevigen, Md.) as described in the manufacturer's instructions.

[2] = molecular target: glyceraldehyde-3-phosphate dehydrogenase (GAPDH) (Homo sapiens, UniProt P04406); test: GAPDH activity in A549 cells (KDalert); format: cell-based; design: GAPDH activity in A549 cells at different time points; endogenous in cells; host or cells: A549
Experimental: In an effort to decipher the mechanism of action of compounds 4 and 8, their effect on glyceraldehyde-3-phosphate dehydrogenase (GAPDH) activity was measured. GAPDH is a glycolytic enzyme which reversibly catalyzes the oxidation of D-glyceraldehyde-3-phosphate to 1,3-diphosphoglycerate. This method utilizes the conversion of NAD^+ to NADH by GAPDH in the presence of glyceraldehydes-3-phosphate and phosphate, which can be measured at an excitation of 560 nm and emission of 590 nm.
Cells were plated at a concentration of 30,000 cells per well and grown overnight. Then they were treated with 100 μM IPA/NO-aspirin and DEA/NO-aspirin for 1, 3, and 6 h followed by which 200 μL of KDalert lysis buffer was added to each well. The plate was incubated at 4° C. for 20 min to lyse the cells. Then 10 μL of cell lysate was transferred to a clean 96 well plate and 90 μL of KDalert mastermix was added to each well and fluorescence was measured at excitation of […]. […] It is also a critical glycolytic enzyme that can play an important role in cancer therapy as solid tumors are known to utilize glycolytic pathways even during normoxia to meet energy requirements (Gatenby et al., Nat. Rev. Cancer, 4(11):891099 (2004)). Thus, inhibition of GAPDH can diminish the […] of tumor cells.

p53 = test: Phosphorylation of p53 in MB-231 cells; format: cell-based, human; details: 50 μM IPA/NO-aspirin, 75 μM DEA/NO-aspirin
Experimental: MB-231 cells were plated at a concentration on 1E6 and grown for 24 h. Then the cells were serum starved overnight followed by treatment with 50 μM and 75 μM, respectively, of IPA/NO-aspirin and DEA/NO-aspirin for 3, 6, 12 h. The cells were harvested and lysed with lysis buffer (cell signaling). Cell lysate was centrifuged at 13,000 rpm for 20 min and the supernatant was transferred to fresh tube. Protein ([…]) of protein was loaded in each lane on a 15% tris-glycine gel and electrophoresis was completed at 120V.

MCF-7 cells = test: MTT cell survival, MCF-7; format: cell-based, human; details: MTT assay
Experimental: (§1) MDA-MB-231, MCF-7 and MDA-MB-468, human breast carcinoma cell lines and MCF-10A, breast […] (American Type Culture Collection, Manassas, Va.) were grown as monolayers in RPMI 1640 supplemented with 10% FCS (Hyclone), penicillin (50 units/ml), streptomycin ([…]; Life Technologies, Inc., Grand Island, N.Y.) and endothelial growth media (Lonanza) respectively. Cells were seeded at a density of 1×10^6 cells/100-cm^2 culture dish and incubated at 37° C. in 5% CO2 and 80% relative humidity. Single-cell suspensions were obtained by trypsinization (0.05% trypsin/EDTA), and cells were counted using a Beckman cell counter.
(§2) 1000× stock solutions aspirin, of a DEA/NO-ASA, and IPA/NO-ASA were made in DMSO and final concentration in the media or PBS was adjusted to 0.1% DMSO.
(§3) The effect of NONO-aspirin on cell proliferation was studied using an MTT assay. The effect of DEA/NO-ASA, IPA/NO-ASA, aspirin, IPA/NO and DEA/NO was measured using the MTT assay. Cells were plated at a concentration of 8,000-10,000 cells per well in a 96 well plate and grown overnight. Cells were treated with different concentrations of the compounds and controls for 48 h. After 48 h, a solution of 5 mg/ml MTT was added to each well and incubated for 1 h. Then the media was removed from each well and 100 uL DMSO was added to each well and the absorbance was read at 550 nm. […]

MB-231 cells = test: MTT cell survival, MDA-MB-231; format: cell-based, human; details: MTT assay
Experimental: as §1, §2, §3

[3] = Kinetic profile of NO and HNO release / stability in buffer; format: physicochemical; details: phosphate buffer pH 7.4, several hours
Experimental: The newly synthesized HNO-releasing aspirin (IPA/NO-aspirin, 4) and NO-releasing aspirin (DEA/NO-aspirin, 8) were evaluated for the kinetic profile of NO and HNO release in buffer and cells.

HUVECs = test: MTT assay, normal endothelial cell line HUVECs; format: cell-based

Sequence of glyceraldehyde-3-phosphate dehydrogenase (GAPDH) (P04406 whole entry): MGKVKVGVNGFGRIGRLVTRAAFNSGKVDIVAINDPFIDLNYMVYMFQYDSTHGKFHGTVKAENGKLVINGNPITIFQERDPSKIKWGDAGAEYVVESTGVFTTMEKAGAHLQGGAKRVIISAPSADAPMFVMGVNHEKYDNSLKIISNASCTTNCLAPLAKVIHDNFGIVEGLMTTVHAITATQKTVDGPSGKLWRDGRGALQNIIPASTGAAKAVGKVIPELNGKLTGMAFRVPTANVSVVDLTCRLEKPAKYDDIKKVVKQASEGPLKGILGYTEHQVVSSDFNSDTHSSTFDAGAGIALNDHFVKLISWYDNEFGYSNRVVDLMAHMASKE

CC(=O)Oc1ccccc1C(=O)OCON=[N+]([O-])NC(C)C [IPA/NO-aspirin, O^2-(Acetylsalicyloyloxymethyl)-1-(N-isopropylamino)-diazen-1-ium-1,2-diolate]
Ulcer Index (stomach ulcers): 3.3 ± 3 mg/kg | UI (ulcer index) (stomach ulcers): 3.0+3.0 | NO/HNO release by chemiluminescence [1]: showed both NO and HNO release | toxicity in MTT assay (A549 cells): slightly higher toxicity than compound 8 | DNA damage (comet assay) (MDA-MB-231 cell line): significant DNA damage | GAPDH Activity [2]: inhibition of GAPDH activity at micro-molar concentrations | time point of activation of p53 phosphorylation (p53): 10 h | pIC50 (MCF-7 cells): 4.05 | pIC50 (MB-231 cells): 4.02 | stability in phosphate buffer [3]: relatively stable | cell death in MTT assay (HUVECs): No significant cell death

CCN(CC)[N+]([O-])=NOCOC(=O)c1ccccc1OC(C)=O [DEA/NO-aspirin, O^2-(Acetylsalicyloyloxymethyl)-1-(N,N-Diethylamino)-diazen-1-ium-1,2-diolate]
Ulcer Index (stomach ulcers): 0 mg/kg | UI (ulcer index) (stomach ulcers): 0 | NO/HNO release by chemiluminescence [1]: shows NO release | DNA damage (comet assay) (MDA-MB-231 cell line): comparable to the DMSO treated control | time point of activation of p53 phosphorylation (p53): 1 h | pIC50 (MCF-7 cells): 3.92 | pIC50 (MB-231 cells): 4.05 | stability in phosphate buffer [3]: relatively stable | cell death in MTT assay (HUVECs): No significant cell death
